Results from patent publication EP0040150A1, “Fluoromethylated tyrosine methyl ester” (MERRELL TORAUDE ET COMPAGNIE, priority 1980, dated 1981).

Experiments:
[1] = Stability of the compound; format: physicochemical
catecholamines = experiment: Catecholamine levels in rat brain and heart after dosing (HPLC with electrochemical detection); format: in vivo, rats; details: for selectivity (brain catecholamines versus heart catecholamines and 5-HT): compared with the methyl ester
Protocol: The animals are kept on a constant 12 hour day-night cycle, and body weights are measured daily. The animals are sacrificed by decapitation 12 to 24 hours after receiving the last dose of the test compound. Control animals receive the vehicle alone. Rats in single dose tests were fasted for 24 hours before administration of the test compound whilst rats in multiple dose tests were allowed free access to food and water. Immediately after death, the brain and heart (where appropriate) are removed and separately homogenized either by 50 ml phosphate buffer pH 6.8 for AADC determination or in icecold 0.4 M HC104 containing 0.05% (w/v) EDTA and 0.1% (w/v) sodium bisulfite for catecholamine determination. AADC activity is determined by the ^14C02 trapping method of J. Christenson, Archs. Biochem. Biophys. […] Catecholamines are determined by centrifuging the homogenate, adding the supernatant to alumina buffered to pH 8.0-8.4 to absorb the catecholamines, re-extracting the catecholamines from the alumina with 2.1 M HC104 and determining the catecholamines in the extracts using reversed-phase ion-pair HPLC with electrochemical detection.

Solubility in water = format: physicochemical; details: neutral pH
AADC = target: T1, AADC (Homo sapiens, UniProt P20711); experiment: AADC inhibition, general statement (method not given)
T1 sequence (P20711 1-480): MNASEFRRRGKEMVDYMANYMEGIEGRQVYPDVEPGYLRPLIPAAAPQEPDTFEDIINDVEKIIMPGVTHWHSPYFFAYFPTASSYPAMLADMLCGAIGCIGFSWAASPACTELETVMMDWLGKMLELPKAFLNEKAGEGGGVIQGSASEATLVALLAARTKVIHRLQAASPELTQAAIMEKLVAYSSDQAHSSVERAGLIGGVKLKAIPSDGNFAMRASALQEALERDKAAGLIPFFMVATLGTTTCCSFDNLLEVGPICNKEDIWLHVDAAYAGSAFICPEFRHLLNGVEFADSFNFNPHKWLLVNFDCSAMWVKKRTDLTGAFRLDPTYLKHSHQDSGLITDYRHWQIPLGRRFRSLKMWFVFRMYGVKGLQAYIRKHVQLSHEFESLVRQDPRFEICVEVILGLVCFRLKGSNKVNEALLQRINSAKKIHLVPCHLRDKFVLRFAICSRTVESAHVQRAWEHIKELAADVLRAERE

[2] = target: T2, aromatic amino acid decarboxylase (AADC) (Rattus norvegicus, UniProt P14173); experiment: AADC activity in rat organ homogenates after dosing (14CO2 trapping method, DL-[1-14C]-dopa as substrate); format: in vivo, rats
T2 construct: the brain and heart (where appropriate) are removed and separately homogenized; from tissue; host or cells: rat brain and heart homogenates
T2 sequence (P14173 1-480): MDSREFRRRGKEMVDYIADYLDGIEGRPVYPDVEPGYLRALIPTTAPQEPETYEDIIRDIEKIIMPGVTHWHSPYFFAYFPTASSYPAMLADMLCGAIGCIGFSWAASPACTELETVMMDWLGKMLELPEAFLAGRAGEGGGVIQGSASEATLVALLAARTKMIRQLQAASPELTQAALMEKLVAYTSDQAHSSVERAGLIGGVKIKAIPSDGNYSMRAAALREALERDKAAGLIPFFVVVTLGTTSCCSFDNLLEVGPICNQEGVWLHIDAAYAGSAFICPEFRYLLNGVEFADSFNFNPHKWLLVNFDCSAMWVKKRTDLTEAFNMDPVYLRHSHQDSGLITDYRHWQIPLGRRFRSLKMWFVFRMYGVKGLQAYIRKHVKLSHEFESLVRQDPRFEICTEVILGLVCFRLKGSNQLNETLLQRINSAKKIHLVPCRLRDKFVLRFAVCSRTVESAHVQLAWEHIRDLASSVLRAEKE
Protocol: (§1) The animals are kept on a constant 12 hour day-night cycle, and body weights are measured daily. The animals are sacrificed by decapitation 12 to 24 hours after receiving the last dose of the test compound. Control animals receive the vehicle alone. Rats in single dose tests were fasted for 24 hours before administration of the test compound whilst rats in multiple dose tests were allowed free access to food and water.
Immediately after death, the brain and heart (where appropriate) are removed and separately homogenized either by 50 ml phosphate buffer pH 6.8 for AADC determination or in icecold 0.4 M HC104 containing 0.05% (w/v) EDTA and 0.1% (w/v) sodium bisulfite for catecholamine determination. AADC activity is determined by the ^14C02 trapping method of J. Christenson, Archs. Biochem. Biophys. 141, 356 (1970) using DL-[1-14C] -dopa as the substrate. Catecholamines are determined by centrifuging the homogenate, adding the supernatant to alumina buffered to pH 8.0-8.4 to absorb the catecholamines, re-extracting the catecholamines from the alumina with 2.1 M HC104 and determining the catecholamines in the extracts using reversed-phase ion-pair HPLC with electrochemical detection.

Serotonin (5-HT) = Serotonin (5-HT) levels in rat organs after dosing (standard techniques); format: in vivo, rats
Protocol: as §1
In the brain, doses of 10 mg/kg and 200 mg/kg produced a 10% reduction and a 70-80% reduction of AADC activity, respectively. […] In the heart, no reduction of norepinephrine is noted up to a dose of 200 mg/kg. When tested after multiple administration of 10, 25, or 50 mg/kg given daily for six days in rats sacrificed 24 hours after the sixth dose, the compound produced a 50% decrease in brain norephinephrine at a dose of 10 mg/kg (daily). […] Serotonin (5-HT) levels, as assessed by standard techniques, are not altered in the brain even at the highest dose tested.

[3] = heart, up to a dose of 200 mg/kg

CC(C)(C)OC(=O)C(N)(CF)Cc1ccc(O)cc1 (centres unmarked) [tert-butyl 2-fluoromethyl-2-amino-3-(4-hydroxyphenyl)-propionate]
stability [1]: relatively unstable

NC(CF)(Cc1ccc(O)cc1)C(=O)O (stereo not drawn) [α-fluoromethyl tyrosine, 2-fluoromethyl-2-amino-3-(4-hydroxyphenyl)-propionic acid]
selectivity (brain catecholamines versus heart catecholamines and 5-HT) (catecholamines): same degree of selectivity is not found | solubility in water (Solubility in water): insoluble | AADC inhibition (AADC): weak AADC inhibitor

COC(=O)[C@@H]1[C@H]2C[C@H]3c4[nH]c5ccccc5c4CCN3C[C@@H]2CC[C@@H]1O [Yohimbine, reference compound]
metabolite MOPEG-sulfate (catecholamines; yohimbine alone): increase | norepinephrine (catecholamines; yohimbine alone): decrease

NC(CF)(Cc1ccc(O)c(O)c1)C(=O)O (centres unmarked) [Fluoromethyl dopa, reference compound]
selectivity (brain catecholamines versus heart catecholamines and 5-HT) (catecholamines): does not exhibit the selectivity

COC(=O)C(N)(CF)Cc1ccc(O)cc1 (centres unmarked) [methyl 2-amino-2-fluoromethyl-3-(4-hydroxyphenyl)propionate]
inhibition of AADC activity ([2]; animals pretreated with haloperidol, compared with non-haloperidol treated animals): more pronounced | extent of inhibition of AADC activity in the brain ([2]; brain, co-administration of -methyl tyrosine (inhibitor of tyrosine hydroxylase)): reduces the extent of inhibition | AADC activity in the heart [2, 3]: not reduced significantly | inhibition at 10 mg/kg ([2]; rat, brain, dose 10 mg/kg, read-out: reduction of AADC activity): 10% | additional decrease of norepinephrine produced by yohimbine (catecholamines; animals treated for 2 weeks with 10 mg/kg methyl ester, same dose of yohimbine): no longer produces an additional decrease | decrease in brain norephinephrine (catecholamines; brain, 10 mg/kg daily for six days, sacrificed 24 hours after the sixth dose): 50% | Brain dopamine decreased (catecholamines; brain, 50 mg/kg daily for six days): 50% | Brain norepinephrine decreased (catecholamines; brain, dose 10 mg/kg): 15-20% | dopamine decreased (catecholamines; brain, dose 50 mg/kg): decreased significantly | Brain norepinephrine decreased (catecholamines; brain, dose 200 mg/kg): 50% | dopamine decreased (catecholamines; brain, dose 200 mg/kg): 75% | decrease in brain norephinephrine (catecholamines; brain, higher doses (25 or 50 mg/kg daily for six days) compared with 10 mg/kg): do not give an additional response | Brain dopamine (catecholamines; brain, lower doses (10, 25 mg/kg daily for six days)): no significant effect | endogenous catecholamine levels in the brain (catecholamines; brain, summary statement): effective in lowering | decrease of norepinephrine over yohimbine (catecholamines; combined with yohimbine, up to 8 days of methyl ester treatment): small additional decrease | Heart norepinephrine (catecholamines; heart, multiple administration (10, 25 or 50 mg/kg daily for six days), any dose): not significantly changed | reduction of norepinephrine in the heart (catecholamines; [3]): no reduction | endogenous 5-HT levels in the brain and heart (Serotonin (5-HT); brain and heart, summary statement): substantially unaltered | Serotonin (5-HT) levels in the brain (Serotonin (5-HT); brain, multiple administration, even at the highest dose tested): not altered
